The test system of one test is HEK293 cells. Nature of the test: Cell transfection with SEAP plasmid, HEK293. Format: cell-based, human. To be noted: Figure 5A; in complex with pVitro14 LGFP SEAP plasmid, 48 hours, SEAP reporter gene expression. On the procedure: (§1) The TLR7-TLR2 molecules were tested for their ability as polyamine molecules to transport plasmid DNA (pDNA) into cells. The pVitro14 LGFP SEAP plasmid (InvivoGen) was complexed to TLR7-TLR2 polyamine molecules and to the control cationic lipid transfection agent, LyoVec™ (InvivoGen). The human HEK293 (ATCC, CRL-1573) and mouse B16-F1 melanoma (ATCC, CRL-6323) cell lines were seeded at a density of 50 000 cells/well and 20 000 cells/well respectively, in the absence or presence of different volumes of the plasmid encoding for the SEAP protein in complex with TLR7-TLR2 polyamine molecules for 48 hours at 37°C and 10% CO2. Transfection efficiency was assessed by measuring SEAP reporter gene expression: 20 µl of supernatant was sampled and mixed with 180 µl of QUANTI-Blue™ Detection (InvivoGen). In the presence of alkaline phosphatase SEAP, the color of QUANTI-Blue™ changes from pink to purple/blue. The intensity of the blue hue reflects the activity of SEAP. The levels of SEAP secretion were determined quantitatively by reading the OD at 620-655 nm using a spectrophotometer, iMark™ Microplate Reader (BIO-RAD).
(In general: Reporter assays use an easily measured gene product as a stand-in for the process of interest.)

The test system of test [1] is ISG54 promoter activity in B16-ISG54 reporter cells. Nature of the test: IFN response assay, B16-ISG54 luciferase reporter cells. Format: cell-based, mouse. To be noted: Figure 6B, in complexes with pDNA 3:24 (w:w), overnight. The protocol:
(§2) The effect of the pDNA:TLR7-TLR2 polyamine molecules complexes on inducing an interferon response was examined. pDNA:TLR7-TLR2 polyamine molecules mixtures (pDNA:TLR7-TLR2 polyamine molecules ratio 3:24, w:w) in serum-free medium or 5% glucose were prepared as described above and added to IFN reporter cells. Luciferase reporter cell lines were used to assay interferon response. A plasmid containing an interferon-inducible luciferase reporter gene was introduced into mouse RAW 264.7 macrophages and mouse B16 melanoma cells, giving rise to the RAW-ISG54 and B16-ISG54 reporter cell lines respectively. Expression of the luciferase reporter gene by the plasmid is under the control of an interferon-inducible promoter (I-ISG54) comprising five interferon-stimulated response elements (ISRE) and the minimal promoter of the human ISG-54K (Interferon Stimulation of a Gene encoding a 54 kDa protein) gene. The ISG-54K gene is induced by interferon regulatory factor 3 (IRF3), which has a key involvement in […] responses (Grandvaux et al. 2002) and the minimal promoter of the human ISG-54K gene contains two ISRE sites and fully inducible by type I interferons (IFN-α and IFN-β) and interferon regulatory factors (IRFs) (Wathelet et al. 1988; Grandvaux et al. 2002).
(§3) The RAW-ISG54 and B16-ISG54 reporter cell lines were seeded onto 96 well microtiter plates at 100,000 cells per well and 75,000 cells per well respectively. […] The induced luciferase expression was assessed in the reporter cell lines using a coelenterazine-base luminescence assay reagent, the Quanti-LucTM (InvivoGen). Secreted luciferase activity was determined by bioluminescence quantification of the cell culture media using a microplate luminometer (FLUOstar OPTIMA from BMG Labtech).

The test system of another test is B16-F1 cells. Briefly: Cell transfection with SEAP plasmid, B16-F1. As to conditions: Figure 5B; in complex with pVitro14 LGFP SEAP plasmid, 48 hours, SEAP reporter gene expression. The format is cell-based, mouse. On the procedure:
as §1

The subject of test [2] is ISG54 promoter activity in RAW-ISG54 reporter cells. Briefly: IFN response assay, RAW-ISG54 luciferase reporter cells. The format is cell-based, mouse. As to conditions: Figure 6A, in complexes with pDNA 3:24 (w:w), overnight. The protocol:
as §2, §3

Consider `CCCCCCCCCCCCCCCC(=O)OCC(CSC[C@H](N)C(=O)N[C@@H](COC(=O)c1ccc(Cn2c(O)nc3c(N)nc(NCCCC)nc32)cc1)C(=O)NCCCNCCCCNCCCN)OC(=O)CCCCCCCCCCCCCCC` (stereo partly drawn) [CL514, (6R,9S)-6,23-diamino-9-((4-((6-amino-2-(butylamino)-8-hydroxy-9H-purin-9-yl)methyl)benzoyloxy)methyl)-7,10-dioxo-4-thia-8,11,15,20-tetraazatricosane-1,2-diyl dipalmitate], for which, in the test with HEK293 cells, the “ability to transfect HEK293 cells” value is “transfect HEK293 cells”. In addition, the “ability to induce an IFN response (ISG54 promoter activity) in B16-ISG54 reporter cells” value in test [1] is “induce an IFN response in B16-ISG54 reporter cells”. Besides, the “ability to transfect B16-F1 cells” value with B16-F1 cells is reported as “transfect B16-F1 cells”. Moreover, the “ability to induce an IFN response (ISG54 promoter activity) in RAW-ISG54 reporter cells” value in test [2] is “induce an IFN response in RAW-ISG54 reporter cells”.
The like results for `CCCCCCCCCCCCCCCC(=O)OCC(CSC[C@H](N)C(=O)N[C@@H](CCC(=O)NCCCNCCCCNCCCN)C(=O)Nc1ccc(Cn2c(O)nc3c(N)nc(NCCCC)nc32)cc1)OC(=O)CCCCCCCCCCCCCCC` (stereo partly drawn) [CL527, (6R,9S)-6,25-diamino-9-(4-((6-amino-2-(butylamino)-8-hydroxy-9H-purin-9-yl)methyl)phenylcarbamoyl)-7,12-dioxo-4-thia-8,13,17,22-tetraazapentacosane-1,2-diyl dipalmitate] were, in that order, “transfect HEK293 cells”, “induce an IFN response in B16-ISG54 reporter cells”, “transfect B16-F1 cells” and “induce an IFN response in RAW-ISG54 reporter cells”.
Turning to `CCCCCCCCCCCCCCCC(=O)OCC(CSC[C@H](N)C(=O)NCCCNCCCCNCCCNC(=O)CNC(=O)c1ccc(Cn2c(O)nc3c(N)nc(NCCCC)nc32)cc1)OC(=O)CCCCCCCCCCCCCCC` (stereo partly drawn) [CL553, (20R)-20-amino-1-(4-((6-amino-2-(butylamino)-8-hydroxy-9H-purin-9-yl)methyl)phenyl)-1,4,19-trioxo-22-thia-2,5,9,14,18-pentaazapentacosane-24,25-diyl dipalmitate], in the test on HEK293 cells, the “ability to transfect HEK293 cells” value is recorded as “transfect HEK293 cells”. In addition, the “ability to induce an IFN response (ISG54 promoter activity) in B16-ISG54 reporter cells” value in test [1] is “induce an IFN response in B16-ISG54 reporter cells”. Also, the “ability to transfect B16-F1 cells” value in the test with B16-F1 cells was “transfect B16-F1 cells”. Further, the “ability to induce an IFN response (ISG54 promoter activity) in RAW-ISG54 reporter cells” value in test [2] is “induce an IFN response in RAW-ISG54 reporter cells”.

These data come from patent publication EP2769738B1, “Conjugated TLR7 and/or TLR8 and TLR2 polycationic agonists” (Invivogen, priority 2013, dated 2014).
